One data set has as its target Chk1 (Homo sapiens (Human), UniProt O14757). The experiment in a line: biochemical. The note with it: read-out: Chk1 inhibition IC50. The class given is biochemical. As for the experimental part:
The compounds of the present disclosure used in the experiments were self-prepared, and their chemical names and structural formulas were shown in the preparation embodiments of each compound. The determination mixture containing embodiment compounds of the present disclosure and Chk1 and Chk2 kinases were incubated in a microtiter plate, and CHK1 inhibitor activity of compounds were tested by monitoring the phosphorylation of Chk1 and Chk2 kinases on a synthetic peptide substrate with a specific amino acid sequence ([…], SEQ ID NO: 1). The test was carried out on the KinaseProfiler™ protein kinase activity detection platform of Eurofins, and the experimental results were provided by the company. The procedure was as follows: Chk1 and Chk2 kinases were diluted with 20 mM MOPS (morpholinpropane sulfonic acid), 1 mM EDTA (ethylenediaminetetraacetic acid), 0.04% Brij-35, 5% glycerol, 0.1% 2-mercaptoethanol, 1 mg/mL BSA (bovine serum albumin) and added to the reaction system, and the reaction system contained the embodiment compounds, 8 mM MOPS pH 7.0, 0.2 mM EDTA, […] polypeptide substrate ([…], SEQ ID NO: 1), 10 mM magnesium acetate and a certain concentration of [γ-33P]-ATP (the strength was about 500 cpm/pmol). A mixture solution of Mg^2′ and ATP (adenosine triphosphate) was added to initiate the reaction and the reaction solution was incubated at room temperature for 40 min. 0.5% Phosphate buffer was added to terminate the reaction. 10 μL of the reaction solution was filtered four times on a continuous filter P30, washed three times with […], and once with methanol, each wash for 4 min. The value was read with scintillation counting method after drying.

For another data set, the target named is Chk2 (Homo sapiens (Human), UniProt O96017). Put plainly: Chk2 kinase activity test, Eurofins KinaseProfiler, [γ-33P]-ATP peptide substrate phosphorylation. In kind it is biochemical. As for the experimental part: The compounds of the present disclosure used in the experiments were self-prepared, and their chemical names and structural formulas were shown in the preparation embodiments of each compound. […] The test was carried out on the KinaseProfiler™ protein kinase activity detection platform of Eurofins, and the experimental results were provided by the company. […] A mixture solution of Mg^2′ and ATP (adenosine triphosphate) was added to initiate the reaction and the reaction solution was incubated at room temperature for 40 min. 0.5% Phosphate buffer was added to terminate the reaction. […] The value was read with scintillation counting method after drying.
Chk2, sequence (O96017 whole entry): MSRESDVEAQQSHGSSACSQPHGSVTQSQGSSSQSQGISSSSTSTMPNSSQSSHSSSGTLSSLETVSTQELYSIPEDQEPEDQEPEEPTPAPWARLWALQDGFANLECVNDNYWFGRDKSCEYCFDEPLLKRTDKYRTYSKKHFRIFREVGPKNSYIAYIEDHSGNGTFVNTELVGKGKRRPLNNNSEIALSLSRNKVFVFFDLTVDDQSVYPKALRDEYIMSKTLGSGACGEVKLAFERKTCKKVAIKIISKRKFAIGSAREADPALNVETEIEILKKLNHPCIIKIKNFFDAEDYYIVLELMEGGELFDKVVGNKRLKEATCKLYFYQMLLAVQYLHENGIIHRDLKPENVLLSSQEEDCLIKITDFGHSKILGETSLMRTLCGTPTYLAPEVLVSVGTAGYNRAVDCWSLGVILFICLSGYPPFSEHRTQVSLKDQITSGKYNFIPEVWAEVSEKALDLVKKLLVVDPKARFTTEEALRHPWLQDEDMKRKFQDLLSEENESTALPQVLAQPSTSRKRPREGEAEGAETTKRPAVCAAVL

Data set [1] concerns human ovarian cancer OVCAR-3 subcutaneous xenograft tumor. Put plainly: In vivo pharmacodynamics, human ovarian cancer OVCAR-3 subcutaneous xenograft tumor BALB/c nude mouse model. The arrangement: species or system BALB/c nude mice. The conditions noted are these: oral twice a day, Compound 18 75 mg/kg, Compound 19 25 mg/kg; for Tumor volume (D 21): D 21, mean ± SEM, n = 6. As for the experimental part: Experimental purpose: To evaluate the in vivo efficacy of the compounds of the present disclosure in the human ovarian cancer OVCAR-3 subcutaneous xenograft tumor BALB/c nude mouse model.
Experimental animal: Female BALB/c nude mice, 6-8 weeks old, weighing 18-22 grams; supplier: Beijing Vital River Laboratory Animal Technology Co., Ltd. Experimental methods and steps:
Human ovarian cancer OVCAR-3 (ATCC-HTB-161) cells were cultured in vitro in monolayer, and the culture conditions were RPMI1640 culture medium with 20% fetal bovine serum, 0.01 mg/mL bovine insulin, and 1% double antibody, and the cells were incubated at 37° C., 5% CO2 incubator. Routine digestion with trypsin was performed twice a week for passage. When the cell saturation was 80%-90% and the number reached the requirement, the cells were harvested, counted and inoculated.
0.1 mL (10×10^6 cells) of OVCAR-3 cells were subcutaneously inoculated into the right back of each mouse, and the mice were administrated in groups when the average tumor volume reached 122 mm^3.
Compound 18, compound 19 were formulated as 2 mg/mL clear solutions with 10% dimethyl sulfoxide-20% polyethylene glycol 400-5% Tween 80-65% water.
Tumor diameters were measured with vernier calipers twice a week. The calculation formula of tumor volume was. V=0.5a×b^2, where a and b represented the long and short diameters of the tumor, respectively.
The antitumor efficacy of the compounds was evaluated by TGI (%). TGI (%), reflecting tumor growth inhibition rate. TGI (%/c)=[(1-(average tumor volume at the end of administration of a certain treatment group-average tumor volume at the beginning of administration of this treatment group)/(average tumor volume at the end of treatment in the solvent control group-average tumor volume at the beginning of administration of this solvent control group)]×100%. The relative tumor volume (RTV) was calculated according to the results of tumor measurement, and the calculation formula was RTV=Vt/V0, where V0 was measured at the time of group administration (i.e., D0), and Vt was the average tumor volume at the time of one measurement.
Statistical analysis was performed using SPSS software based on RTV data at the end of the test. The Ttest was used for the comparison between two groups, and the one-way ANOVA was used for the comparison between three or more groups. If the variance was homogeneous (no significant difference in F value), Tukey's method was used for analysis; if the variance was not homogeneous (significant difference in F value), Games-Howell method was used for test. p<0.05 was considered that a significant difference was performed.
Background: Xenograft models place foreign cells or tissue in a host animal.

Data set [2] can be described thus: Pharmacokinetic evaluation of compounds in mice. The class given is in vivo. The note with it: mouse, plasma, female C57BL/6 mice; for bioavailability: oral, gavage 10 mg/kg vs intravenous 1 mg/kg, read-out: F (bioavailability); for AUC(0-t): 0 to 24 h; for Cmax: route not given (gavage group 10 mg/kg); for half-life: read-out: Intravenous injection T1/2 (converted).

Setting [3] is: po, gavage 10 mg/kg, read-out: Oral AUC0-last.
Setting [4] is: intravenous injection 1 mg/kg, read-out: Intravenous Injection AUC0-last.

Values joined by “and” are separate entries in the source; they are usually repeats but may differ in a detail not shown here. Equal values may be shown once. Read-outs that look alike come from different tables or passages of the source.

Chk1, sequence (O14757 whole entry): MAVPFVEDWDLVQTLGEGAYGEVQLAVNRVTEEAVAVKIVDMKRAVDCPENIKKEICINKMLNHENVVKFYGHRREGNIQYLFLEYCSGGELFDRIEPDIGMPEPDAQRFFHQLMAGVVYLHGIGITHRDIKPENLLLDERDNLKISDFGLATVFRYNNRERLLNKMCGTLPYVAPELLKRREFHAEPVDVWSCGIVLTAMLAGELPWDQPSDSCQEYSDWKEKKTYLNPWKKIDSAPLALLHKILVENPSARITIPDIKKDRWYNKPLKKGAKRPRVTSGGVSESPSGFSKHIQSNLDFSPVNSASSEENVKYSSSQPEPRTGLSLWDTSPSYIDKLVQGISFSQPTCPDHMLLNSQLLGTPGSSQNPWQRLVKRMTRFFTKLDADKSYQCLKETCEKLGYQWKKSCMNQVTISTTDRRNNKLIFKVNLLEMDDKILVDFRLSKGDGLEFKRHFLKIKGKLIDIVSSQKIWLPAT

A word on the IC50: it is the point on the concentration scale where inhibition reaches its midpoint. Turning to `COc1nc(C)ccc1-c1cc(Nc2cnc3ccn(C4CCNCC4)c3n2)n[nH]1` [Compound 1], the IC50 at Chk1 is below 1 nM.

In the case of `COc1nc(C)ccc1-c1cc(Nc2cnc3c(F)cn(C4CCNCC4)c3n2)n[nH]1` [Compound 2], the IC50 at Chk1 is 2 nM.

For `COc1nc(C)ccc1-c1cc(Nc2cnc3ccn(CC4CNC4)c3n2)n[nH]1` [Compound 4], the IC50 was found to be 3 nM at Chk1 and 333 nM at Chk2 (read-out: Chk2 inhibition IC50).

For the compound `COc1nc(C)ccc1-c1cc(Nc2cnc3ccn(C[C@H]4CCNC4)c3n2)n[nH]1` [Compound 5], the IC50 came to 3 nM on Chk1 and 375 nM at Chk2 (read-out: Chk2 inhibition IC50).

`[2H]c1cn(C2CCNCC2)c2nc(Nc3cc(-c4ccc(C)nc4OC)[nH]n3)cnc12` [Compound 6]: the IC50 on Chk1 was below 1 nM; on Chk2 it was 64 nM.

Regarding `COc1ccc(F)cc1-c1cc(Nc2cnc3ccn(C4CCNCC4)c3n2)n[nH]1` [Compound 8], the IC50 at Chk1 is 1 nM; on Chk2 (read-out: Chk2 inhibition IC50) it was 188 nM.

Take `COc1nc(C(F)(F)F)ccc1-c1cc(Nc2cnc3ccn(C4CCNCC4)c3n2)n[nH]1` [Compound 9]: the figures for the concentration for half-maximal inhibition (IC50) at Chk1 and on Chk2 (read-out: Chk2 inhibition IC50) were 2 nM and 1010 nM, respectively.

Turning to `COc1ccccc1-c1cc(Nc2cnc3ccn(C4CCNCC4)c3n2)n[nH]1` [Compound 10], the figures for the IC50 at Chk1 and at Chk2 (read-out: Chk2 inhibition IC50) were 2 nM and 62 nM, respectively.

For the compound `Fc1cccc(OC(F)(F)F)c1-c1cc(Nc2cnc3ccn(C4CCNCC4)c3n2)n[nH]1` [Compound 11], the half-maximal inhibitory concentration (IC50) was determined as 3 nM at Chk1 and 99 nM at Chk2 (read-out: Chk2 inhibition IC50).

On to `COc1cc(F)ccc1-c1cc(Nc2cnc3ccn(C4CCNCC4)c3n2)n[nH]1` [Compound 12], for which the IC50 is 1 nM at Chk1 and 32 nM at Chk2 (read-out: Chk2 inhibition IC50).

Turning to `COc1cc(C)ccc1-c1cc(Nc2cnc3ccn(C4CCNCC4)c3n2)n[nH]1` [Compound 13], the IC50 at Chk1 was 2 nM; at Chk2 (read-out: Chk2 inhibition IC50), 84 nM.

Take `COc1cc(Cl)ccc1-c1cc(Nc2cnc3ccn(C4CCNCC4)c3n2)n[nH]1` [Compound 14]: the results for the IC50 at Chk1 and at Chk2 (read-out: Chk2 inhibition IC50) were 1 nM and 73 nM, respectively.

By bioavailability is commonly meant the share of a dose that reaches the circulation, judged against a reference dose that is usually intravenous. Broadly, the Cmax is the peak of the concentration-time curve. What is called Vd is the apparent volume that relates the amount in the body to the concentration in plasma or blood. A lower Vd goes with little distribution into tissue. The term clearance denotes the volume of plasma or blood freed of the substance per unit of time. Regarding `COc1nc(C)ccc1-c1cc(Nc2cnc3ccn(C4CCN(C)CC4)c3n2)n[nH]1` [Compound 18], in data set [1], the “Tumor volume (D 21)” value amounted to 180 ± 16 mm^3, the “RTV (D 21)” value came to 1.49 and the “TGI (%) (D 21)” value was determined as 92.34%. Also, in data set [1] (listed as compound 18), the “Tumor volume (D 21)” value stood at 180 mm^3 and the “TGI (%) (D 21)” value amounted to 92.3%. The bioavailability in data set [2] is 33.2%. For the same compound, the AUC(0-t) in data set [2] (setting [3]) came to 3.63 µM·h. The compound also returned a Cmax in data set [2] (po) of 1220 nM. Moreover, in data set [2] (intravenous injection 1 mg/kg), the distribution volume (Vd) is 1.9 L/kg, the clearance stood at 35.3 mL/min/kg and the half-life was 0.9 h. The AUC(0-t) in data set [2] (setting [4]) was determined as 1.14 µM·h.

As to `COc1nc(C)ccc1-c1cc(Nc2cnc3c(F)cn(C4CCN(C)CC4)c3n2)n[nH]1` [Compound 19], in data set [1], the “Tumor volume (D 21)” value is 131 mm^3 and 131 ± 12 mm^3; the “RTV (D 21)” value was found to be 1.14; the “TGI (%) (D 21)” value is 98.8% and 98.76%. The bioavailability in data set [2] stood at 39.1%. The AUC(0-t) in data set [2] (setting [3]) is 3.91 µM·h. The Cmax in data set [2] (po) came out at 1220 nM. For the same compound, in data set [2] (intravenous injection 1 mg/kg), the Vd was 2.4 L/kg, the clearance was 33.1 mL/min/kg and the half-life is 1.1 h. Also, in data set [2] (setting [4]), the AUC(0-t) is 1.15 µM·h.

As for `[2H]C([2H])([2H])Oc1nc(C)ccc1-c1cc(Nc2cnc3c(F)cn(C4CCN(C)CC4)c3n2)n[nH]1` [Compound 20], the IC50 at Chk1 came out at 2 nM; on Chk2 it was 282 nM. In data set [2], the bioavailability stood at 41.9%. Also, the AUC(0-t) in data set [2] (setting [3]) worked out at 5.13 µM·h; in data set [2] (setting [4]) it was 1.21 µM·h. The compound also returned a Cmax in data set [2] (po) of 1260 nM. Besides, the Vd in data set [2] (intravenous injection 1 mg/kg) stood at 2.7 L/kg. Also, in data set [2] (intravenous injection 1 mg/kg), the clearance was determined as 30.9 mL/min/kg. Moreover, in data set [2] (intravenous injection 1 mg/kg), the half-life is 1.4 h.

For the compound `[2H]C([2H])([2H])N1CCC(n2ccc3ncc(Nc4cc(-c5ccc(C)nc5OC)[nH]n4)nc32)CC1` [Compound 21], the values for the IC50 at Chk1 and against Chk2 were 1 nM and 362 nM, respectively.

For the compound `[2H]C([2H])([2H])Oc1nc(C)ccc1-c1cc(Nc2cnc3ccn(C4CCN(C([2H])([2H])[2H])CC4)c3n2)n[nH]1` [Compound 22], the IC50 at Chk1 is 1 nM; on Chk2, 386 nM.

(Values after patent US11634424B2 (priority 2019, dated 2023).)
